{"source": "patent US20130195926A1", "about": "“MODULATION OF NITRIC OXIDE SIGNALING TO NORMALIZE TUMOR VASCULATURE” (The General Hospital Corporation, priority 2007, published 2013)", "system": "U87 gliomas", "assay": "NO distribution in U87 gliomas by DAF-2T fluorescence (MPLSM)", "type": "in vivo, mice", "settings": "U87 tumor with shRNA58 vs parental U87, cranial window, Rag-1-/- mice", "protocol": "FIGS. 3A-B show microfluorographs depicting NO distribution in U87 gliomas grown in the cranial window in Rag-1^−/−. NO production was visualized by means of DAF-2T fluorescence 0, 20, 40 and 60 min after DAF-2 (0.5 mg/body) injection. Left column, micro-angiography with tetramethylrhodamine-dextran (2000 kDa). Middle column, representative DAF-2T microfluorography captured 60 min after the loading of DAF-2 in tumors. Right column, pseudocolor representation of DAF-2T microfluorographs. […] Bars indicate 100 μm. (A) NO distribution in parental U87MG (top row) or nNOS shRNA58-transfected-U87 (bottom row) tumors. […]\nVascular parameters such as functional vessel density (the total length of perfused microvessels per unit area) and vessel diameter were analyzed by tracing each vessel segment using NIH image 1.63 as described elsewhere (Kashiwagi, S., et al. 2005 J. Clin. Invest. 115, 1816-1827). Tissue distribution of NO was visualized using MPLSM and the NO-sensitive fluorescence probe 4,5-diaminofluorescein (DAF-2) (0.5 mg i.v. Daiichi Pure Chemicals Co. Ltd) as described previously (Kashiwagi, S., et al. 2005 J. Clin. Invest. 115, 1816-1827). NO converts DAF-2 to 4,5-diaminofluorescein triazolium (DAF-2T) increasing fluorescence by a factor of 200. The DAF-2 associated fluorescence images were captured 60 min after i.v. injection. […]", "data": [{"substance": "shRNA58: short-hairpin RNA for nNOS, CAAAGAGATCGACACCATC (sense), GATGGTGTCGATCTCTTTGTT (antisense), in pSilencer 3.1 H-1-hygro, stably transfected into U87MG", "values": [{"measurement": "DAF-associated fluorescence (NO distribution)", "result": "predominantly localized in vascular region"}]}]}
